Like-named read-outs stand apart in the source and are kept apart here.
Assays:
[1] = test system: HTT mRNA; experiment: RT-qPCR splicing assay, HTT canonical junction (CJ) and alternative junction (AJ) mRNA; assay type: cell-based, human; conditions: Homo sapiens; for AC50: increase in HTT alternative junction (AJ) mRNA, read-out: HTT AJ AC50
Outline: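 Following a 24-hour incubation of A673 or K562 cells with serially diluted compound (3-fold steps, highest final 10 uM), the lysates undergo cDNA synthesis plus qPCR. Canonical and alternative junctions are each quantified against PPIA, GAPDH or GUSB.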

[2] = test system: SMN2 mRNA; experiment: RT-qPCR splicing assay, SMN2 canonical junction (CJ) mRNA; assay type: cell-based, human; conditions: Homo sapiens; Table 5 panel; canonical junction qPCR; compound concentration having 50% response in CJ decrease; read-out: SMN2 IC50 (decrease in CJ mRNA levels)
Outline: (§1)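 K562/A673 cells, 11-pt 3-fold compound titration from 10 uM final, DMSO ≤0.25%, 24 h 37 °C 5% CO2; lyse (DNase I or Igepal/Tris buffer pH 7.4); RT-qPCR for CJ isoform vs housekeeping gene (GAPDH/GUSB/PPIA).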

[3] = test system: Target C; experiment: RT-qPCR splicing assay panel, Target C canonical junction (CJ) mRNA; assay type: cell-based, human; conditions: Homo sapiens; Table 5 panel; canonical junction qPCR; compound concentration having 50% response in CJ decrease; read-out: Target C IC50 (decrease in CJ mRNA levels)
Outline: as §1

[4] = test system: K562 (human chronic myelogenous leukemia) cells; experiment: Cell Titer Glo 2.0 cell viability assay; assay type: cell-based; conditions: Homo sapiens, K562, 72 h, K562 cells, 72 hours, Cell Titer Glo 2.0; read-out: K562 GI50
[5] = decrease in HTT canonical junction (CJ) mRNA, RT-qPCR, read-out: HTT CJ IC50
[6] = Table 5 panel, canonical junction qPCR, compound concentration having 50% response in CJ decrease, read-out: HTT IC50 (decrease in CJ mRNA levels)

| SMILES | IC50 [1, 5] | IC50 [1, 6] | IC50 [2] | IC50 [3] | GI50 [4] | AC50 ([1]; RT-qPCR) |
| --- | --- | --- | --- | --- | --- | --- |
| Cc1cn2cc(-c3ccc4c(=O)n([C@@H]5CCNC5)cc(C)c4c3)cc(F)c2n1 [Compound 452, (R)-6-(8-fluoro-2-methylimidazo[1,2-a]pyridin-6-yl)-4-methyl-2-(pyrrolidin-3-yl)isoquinolin-1(2H)-one] | > 10 µM | > 10 µM | < 0.1 µM | > 10 µM | 1 to 10 µM | > 10 µM |
| Cc1cn2c(n1)CCC(c1ccc3c(=O)n(C4CCNCC4)ccc3c1)C2 (stereo not drawn) [Compound 453, 6-{2-methyl-5H,6H,7H,8H-imidazo[1,2-a]pyridin-6-yl}-2-(piperidin-4-yl)isoquinolin-1-one] | > 10 µM | > 10 µM | > 10 µM | > 10 µM | > 10 µM | > 10 µM |
| Cc1cn2cc(-n3ccc4cc(N5C[C@@H](C)N[C@@H](C)C5)ccc4c3=O)nc(C)c2n1 [Compound 454, 2-{2,8-dimethylimidazo[1,2-a]pyrazin-6-yl}-6-[(3R,5S)-3,5-dimethylpiperazin-1-yl]isoquinolin-1-one] | > 10 µM | > 10 µM | 1 to 10 µM | > 10 µM | > 10 µM | > 10 µM |
| Cc1cn2cc(-c3ccc4c(=O)n([C@H]5CCNC5)cc(C)c4c3)cc(C#N)c2n1 [Compound 456, (S)-2-methyl-6-(4-methyl-1-oxo-2-(pyrrolidin-3-yl)-1,2-dihydroisoquinolin-6-yl)imidazo[1,2-a]pyridine-8-carbonitrile] | > 10 µM | > 10 µM | 1 to 10 µM | > 10 µM | > 10 µM | > 10 µM |
| Cn1cc2c(n1)CCN(c1ccc3c(=O)n(C4CCNCC4)ccc3c1)C2 [Compound 509, 6-{2-methyl-4H,6H,7H-pyrazolo[4,3-c]pyridin-5-yl}-2-(piperidin-4-yl)isoquinolin-1-one] | > 10 µM | > 10 µM | 1 to 10 µM | > 10 µM | > 10 µM | > 10 µM |

Now from value to molecule, other results behind:

| IC50 [1, 5] | IC50 [1, 6] | IC50 [2] | IC50 [3] | GI50 [4] | SMILES | AC50 ([1]; RT-qPCR) |
| --- | --- | --- | --- | --- | --- | --- |
| 0.1 to 1 µM | 0.1 to 1 µM | < 0.1 µM | 0.1 to 1 µM | < 0.1 µM | Cc1cn2cc(-c3cc(F)c4c(=O)n(C5CCNCC5)cc(C)c4c3)cc(F)c2n1 [Compound 461, 8-fluoro-6-{8-fluoro-2-methylimidazo[1,2-a]pyridin-6-yl}-4-methyl-2-(piperidin-4-yl)isoquinolin-1-one] | 0.1 to 1 µM |
| 1 to 10 µM | 1 to 10 µM | 0.1 to 1 µM | > 10 µM | 1 to 10 µM | Cc1cn2nc(-c3cc(O)c4c(=O)n(C5CCNC5)cc(C)c4c3)cc(C)c2n1 (stereo not drawn) [Compound 462] | 1 to 10 µM |
| 1 to 10 µM | 0.1 to 1 µM | < 0.1 µM | 1 to 10 µM | 1 to 10 µM | Cc1cn2cc(-c3ccc4c(=O)n(C5CCNC6(CC6)C5)ncc4c3)cc(Cl)c2n1 (stereo not drawn) [Compound 510] | 0.1 to 1 µM |
| 0.1 to 1 µM | 0.1 to 1 µM | < 0.1 µM | 1 to 10 µM | 1 to 10 µM | Cn1cc2nc(-c3ccc4c(=O)n(C5CCNC6(CC6)C5)ncc4c3)ccc2n1 (stereo not drawn) [Compound 511] | 0.1 to 1 µM |
